The source made the active and inactive calls. No cut-off for these calls is given here.
Tests used:
[1] = target: T1, Serine/threonine-protein kinase tousled-like 2 (Homo sapiens, UniProt Q86UE8); assay: Binding affinity to full length FLAG/HA/Strep-tagged TLK2 (388 to 772 residues) (unknown origin) transfected in HEK293T cells by Alexa Fluor 647 staining based FRET assay; type: cell-based
Target sequence in this assay (Q86UE8 whole entry, the tested form may be a part): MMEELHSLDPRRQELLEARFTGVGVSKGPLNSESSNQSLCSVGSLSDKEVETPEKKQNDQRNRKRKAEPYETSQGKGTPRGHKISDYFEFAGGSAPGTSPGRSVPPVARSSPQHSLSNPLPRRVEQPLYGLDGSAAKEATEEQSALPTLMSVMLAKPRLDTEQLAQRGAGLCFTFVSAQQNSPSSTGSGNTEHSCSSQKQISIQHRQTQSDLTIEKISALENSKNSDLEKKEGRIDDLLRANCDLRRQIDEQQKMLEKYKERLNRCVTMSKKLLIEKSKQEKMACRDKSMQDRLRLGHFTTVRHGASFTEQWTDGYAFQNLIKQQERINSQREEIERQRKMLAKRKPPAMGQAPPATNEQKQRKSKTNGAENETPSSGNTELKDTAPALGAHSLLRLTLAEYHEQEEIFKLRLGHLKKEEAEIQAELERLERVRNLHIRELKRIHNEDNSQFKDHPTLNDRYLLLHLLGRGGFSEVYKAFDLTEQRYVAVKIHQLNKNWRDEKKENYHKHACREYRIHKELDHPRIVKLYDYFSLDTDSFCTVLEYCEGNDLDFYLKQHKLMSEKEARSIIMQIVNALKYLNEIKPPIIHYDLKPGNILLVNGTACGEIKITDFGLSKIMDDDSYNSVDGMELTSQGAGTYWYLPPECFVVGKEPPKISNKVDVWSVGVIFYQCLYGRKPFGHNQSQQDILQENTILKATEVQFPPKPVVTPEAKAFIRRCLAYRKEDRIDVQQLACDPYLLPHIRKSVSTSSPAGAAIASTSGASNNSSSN

[2] = Cytotoxicity against human IMR-90 cells assessed as reduction in cell viability incubated for 72 hrs by MTT assay; type: toxicity, cell-based
MDA-MB-231 [3] = assay: Induction of cell cycle arrest in human MDA-MB-231 cells assessed as increase in cells at sub G1 phase at 2 uM measured after 72 hrs by PI staining based flow cytometric analysis (reference value: 0.8%); type: functional
[4] = Cytotoxicity against human MRC5 cells assessed as reduction in cell viability incubated for 72 hrs by MTT assay; type: toxicity, cell-based
MDA-MB-231 [5] = assay: Cytotoxicity against human MDA-MB-231 cells assessed as reduction in cell viability at 0.5 uM measured after 72 hrs by MTT assay; type: functional
[6] = target: T1, Serine/threonine-protein kinase tousled-like 2; assay: Inhibition of full length FLAG/HA/Strep-tagged TLK2 (unknown origin) transfected in HEK293T cells assessed as reduction in ASF1a phosphorylation at S166 residue at 5 uM by Western blot analysis; type: cell-based
Target sequence in this assay (Q86UE8 whole entry, looked up, the tested form may be a part): as the sequence (Q86UE8 whole entry, the tested form may be a part) above

A549 = assay: Cytotoxicity against human A549 cells assessed as reduction in cell viability incubated for 72 hrs by MTT assay; type: functional, cell-based; conditions: A549, 72 h
[7] = target: Histone chaperone ASF1A (Homo sapiens) (UniProt Q9Y294); assay: Inhibition of ASF1a phosphorylation at S166 residue in human MDA-MB-231 cells at 10 uM incubated for 4 hrs by Western blot analysis; type: cell-based
Histone chaperone ASF1A (Homo sapiens), sequence (Q9Y294 whole entry): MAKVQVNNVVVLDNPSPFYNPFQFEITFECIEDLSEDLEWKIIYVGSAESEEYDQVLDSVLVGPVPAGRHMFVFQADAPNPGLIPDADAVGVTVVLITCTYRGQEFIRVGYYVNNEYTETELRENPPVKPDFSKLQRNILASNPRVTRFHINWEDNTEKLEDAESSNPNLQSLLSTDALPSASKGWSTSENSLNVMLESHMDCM

MDA-MB-231 [8] = assay: Antiproliferative activity against human MDA-MB-231 cells assessed as increase in cell death rate at 1 uM by trypan blue assay; type: functional, cell-based
MDA-MB-231 [9] = assay: Induction of cell cycle arrest in human MDA-MB-231 cells assessed as increase in cells at sub G1 phase at 4 uM measured after 72 hrs by PI staining based flow cytometric analysis (reference value: 0.8%); type: functional
HCT-116 = assay: Cytotoxicity against human HCT-116 cells assessed as reduction in cell viability incubated for 72 hrs by MTT assay; type: functional, cell-based; conditions: HCT-116, 72 h
MDA-MB-231 [10] = assay: Induction of apoptosis in human MDA-MB-231 cells assessed as decrease in MCL-1 level at 4 uM incubated for 72 hrs by gel electrophoresis method; type: functional, cell-based
MDA-MB-231 [11] = assay: Effect on cell cycle progression in human MDA-MB-231 cells assessed as accumulation of cells at S phase at 2 uM by PI staining based flow cytometric analysis; type: functional
MDA-MB-231 [12] = assay: Induction of apoptosis in human MDA-MB-231 cells assessed as increase in caspase-3 level at 4 uM incubated for 72 hrs by gel electrophoresis method; type: functional, cell-based
MDA-MB-231 [13] = assay: Antiproliferative activity against human MDA-MB-231 cells assessed as reduction in cell growth at 0.25 uM by trypan blue assay; type: functional, cell-based
MDA-MB-231 [14] = assay: Induction of apoptosis in human MDA-MB-231 cells assessed as increase in caspase-9 level at 4 uM incubated for 72 hrs by gel electrophoresis method; type: functional, cell-based
MDA-MB-231 [15] = assay: Cytotoxicity against human MDA-MB-231 cells assessed as reduction in cell viability incubated for 72 hrs by MTT assay; type: functional, cell-based; conditions: MDA-MB-231, 72 h
MDA-MB-231 [16] = assay: Induction of apoptosis in human MDA-MB-231 cells assessed as decrease in Bcl-xL level at 4 uM incubated for 72 hrs by gel electrophoresis method; type: functional, cell-based
MDA-MB-231 [17] = assay: Antiproliferative activity against human MDA-MB-231 cells assessed as reduction in cell growth at 1 uM by trypan blue assay; type: functional, cell-based
MDA-MB-231 [18] = assay: Induction of DNA damage in human MDA-MB-231 cells at 10 uM incubated for 4 hrs by gel electrophoresis method; type: functional, cell-based
[19] = target: T1, Serine/threonine-protein kinase tousled-like 2; assay: Inhibition of full length FLAG/HA/Strep-tagged TLK2 (unknown origin) transfected in HEK293T cells at 50 uM using GST-ASF1 as substrate preincubated for 15 mins followed by substrate addition and measured after 15 mins in presence of ATP by Western blot analysis; conditions: time 30.0 min
Target sequence in this assay (Q86UE8 whole entry, looked up, the tested form may be a part): as the sequence (Q86UE8 whole entry, the tested form may be a part) above

U2OS [20] = assay: Inhibition of DNA replication in PCNA positive human U2OS cells assessed as reduction in EdU level at 50 uM incubated for 4 hrs by immunofluorescence staining based EdU incorporation assay; type: functional, cell-based
U2OS [21] = assay: Effect on cell cycle progression in human U2OS cells assessed as accumulation of cells at early stage of S phase measured after 8 hrs by PI staining based flow cytometric analysis; type: functional
[22] = target: T1, Serine/threonine-protein kinase tousled-like 2; assay: Inhibition of full length FLAG/HA/Strep-tagged TLK2 (unknown origin) in human U2OS cells assessed as reduction in ASF1 phosphorylation at 16.7 uM measured after 4 hrs by Western blot analysis; type: cell-based
Target sequence in this assay (Q86UE8 whole entry, looked up, the tested form may be a part): as the sequence (Q86UE8 whole entry, the tested form may be a part) above

U2OS [23] = assay: Inhibition of DNA replication in PCNA positive human U2OS cells assessed as reduction in EdU level at 2.5 to 20 uM incubated for 4 hrs by immunofluorescence staining based EdU incorporation assay; type: functional, cell-based; conditions: dose 2.5-20 µM
U2OS [24] = assay: Induction of DNA damage in PCNA positive human U2OS cells assessed as increase in H2AX phosphorylation at S139 residue in S phase by measuring fluorescence intensity at 10 uM incubated for 4 hrs by immunofluorescence microscopy; type: functional, cell-based
U2OS [25] = assay: Induction of DNA damage in human U2OS cells assessed as increase in RPA2 phosphorylation at S4/S8 residue at 5 to 10 uM incubated for 4 hrs by Western blot analysis; type: functional, cell-based; conditions: dose 5-10 µM
U2OS [26] = assay: Induction of DNA damage in human U2OS cells assessed as increase in CHK2 phosphorylation at T68 residue at 5 to 10 uM incubated for 4 hrs by Western blot analysis; type: functional, cell-based; conditions: dose 5-10 µM
U2OS [27] = assay: Induction of DNA damage in human U2OS cells assessed as increase in KAP1 phosphorylation at S824 residue at 5 to 10 uM incubated for 4 hrs by Western blot analysis; type: functional, cell-based; conditions: dose 5-10 µM
[28] = target: T1, Serine/threonine-protein kinase tousled-like 2; assay: Inhibition of full length FLAG/HA/Strep-tagged TLK2 (unknown origin) in human MDA-MB-231 cells assessed as reduction in ASF1 phosphorylation at 16.7 uM measured after 4 hrs by Western blot analysis; type: cell-based
Target sequence in this assay (Q86UE8 whole entry, looked up, the tested form may be a part): as the sequence (Q86UE8 whole entry, the tested form may be a part) above

U2OS [29] = assay: Effect on cell cycle progression in human U2OS cells assessed as accumulation of cells at S phase measured after 8 hrs by PI staining based flow cytometric analysis; type: functional; conditions: dose 2.5-20 µM, DDE = dose-dependent effect
[30] = target: T1, Serine/threonine-protein kinase tousled-like 2; assay: Inhibition of full length FLAG/HA/Strep-tagged TLK2 (unknown origin) transfected in HEK293T cells assessed as reduction in TLK mediated ASF1a phosphorylation at 50 uM by Western blot analysis; type: cell-based
Target sequence in this assay (Q86UE8 whole entry, looked up, the tested form may be a part): as the sequence (Q86UE8 whole entry, the tested form may be a part) above

U2OS [31] = assay: Induction of DNA damage in human U2OS cells assessed as increase in CHK1 phosphorylation at S345 residue at 2.5 to 5 uM incubated for 4 hrs by Western blot analysis; type: functional, cell-based; conditions: dose 2.5-5 µM
[32] = target: T1, Serine/threonine-protein kinase tousled-like 2; assay: Inhibition of full length FLAG/HA/Strep-tagged TLK2 (unknown origin) in human U2OS cells assessed as ASF1 phosphorylation by measuring decrease in band shift at 16.7 uM measured after 4 hrs by Western blot analysis; type: cell-based
Target sequence in this assay (Q86UE8 whole entry, looked up, the tested form may be a part): as the sequence (Q86UE8 whole entry, the tested form may be a part) above

SMILES | IC50 at 72 h [2] | IC50 at 72 h [4] | Activity (MDA-MB-231 [5]) | inhibition [6] | IC50 (A549) | inhibition of ASF1a S166 phosphorylation (active/inactive call) [7] | IC50 (HCT-116) | IC50 (MDA-MB-231 [15]) | further results
CN1CCCC1CCO/N=C1/C(=C2/C(=O)Nc3ccccc32)Nc2ccccc21 (centres undefined) | > 2000 nM | > 2000 nM | 40% | Active | 260 nM | Active | 370 nM | 250 nM | IC50 [1]: 18.6 nM; Activity (MDA-MB-231 [3]): 15.4%; Activity (MDA-MB-231 [8]): Active; Activity (MDA-MB-231 [9]): 25.6%; Activity (MDA-MB-231 [10]): Active; Activity (MDA-MB-231 [11]): Active; Activity (MDA-MB-231 [12]): Active; Activity (MDA-MB-231 [13]): Active; Activity (MDA-MB-231 [14]): Active; Activity (MDA-MB-231 [16]): Active; Activity (MDA-MB-231 [17]): Active; Activity (MDA-MB-231 [18]): Active
CN(C)CCCO/N=C1/C(=C2/C(=O)Nc3ccccc32)Nc2ccccc21 | > 2000 nM | > 2000 nM | 40% | Active | 610 nM | Active | 710 nM | 440 nM | Activity (MDA-MB-231 [11]): Active; Activity (MDA-MB-231 [18]): Active
CN1CCCCC1CCO/N=C1/C(=C2/C(=O)Nc3cc(Cl)ccc32)Nc2ccccc21 (centres undefined) | – | – | – | – | – | Active | – | – | –
CN1CCCCC1CCO/N=C1/C(=C2/C(=O)Nc3cc(F)ccc32)Nc2ccccc21 (centres undefined) | – | – | <30% | – | – | – | – | – | –
CN[C@@H]1C[C@H]2O[C@@](C)([C@@H]1OC)n1c3ccccc3c3c4c(c5c6ccccc6n2c5c31)C(=O)NC4 | – | – | – | – | – | – | – | – | inhibition [19]: Active
CN(C)CCCn1cc(C2=C(c3c[nH]c4ccccc34)C(=O)NC2=O)c2ccccc21 | – | – | – | – | – | – | – | – | inhibition [19]: Active
CN1CCCCC1CCO/N=C1/C(=C2/C(=O)Nc3ccc([N+](=O)[O-])cc32)Nc2ccccc21 (centres undefined) | – | – | 40% | Active | – | Active | – | – | –
NC(=O)NO | – | – | – | – | – | – | – | – | inhibition (U2OS [20]): Active; Activity (U2OS [21]): Active; inhibition [22]: Active
CN1CCCCC1CCO/N=C1/C(=C2/C(=O)Nc3ccccc32)Nc2ccccc21 (centres undefined) | > 2000 nM | > 2000 nM | <30% | – | 1210 nM | – | 1280 nM | 1170 nM | inhibition (U2OS [23]): Active; IC50 [1]: 163 nM; Activity (U2OS [24]): Active; Activity (U2OS [25]): Active; Activity (U2OS [26]): Active; Activity (U2OS [27]): Active; inhibition [28]: Active; Activity (U2OS [29]): Dde; inhibition [30]: Active; Activity (U2OS [31]): Active; inhibition [32]: Active
COc1ccc2c(c1)c(C1=C(c3c[nH]c4ccccc34)C(=O)NC1=O)cn2CCCN(C)C | – | – | – | – | – | – | – | – | inhibition [19]: Active
CN1CCCCC1CCO/N=C1/C(=C2/C(=O)Nc3ccc(F)cc32)Nc2ccccc21 (centres undefined) | > 2000 nM | > 2000 nM | 40% | Active | 600 nM | Active | 600 nM | 530 nM | –
CN1CCCCC1CCO/N=C1/C(=C2/C(=O)Nc3ccccc32)Nc2ccc(F)cc21 (centres undefined) | – | – | <30% | – | – | – | – | – | –
CN1CCC(O/N=C2/C(=C3/C(=O)Nc4ccccc43)Nc3ccccc32)CC1 | > 2000 nM | > 2000 nM | 40% | Active | 190 nM | Active | 390 nM | 250 nM | IC50 [1]: 33.1 nM; Activity (MDA-MB-231 [11]): Active; Activity (MDA-MB-231 [13]): Active; Activity (MDA-MB-231 [18]): Active
